Experimental data reported in patent US11717598B2, “Operating room coating applicator and method” (Ethicon, Inc., priority 2018, dated 2023).

What was measured:
Staphylococcus aureus = assay: zone of inhibition test of triclosan-coated stainless steel coupon on agar plate; assay type: cell-based; settings: triclosan coating on 0.5" polished 316 stainless steel coupon; incubated at 38° C. for 24 hours; inoculum of 10^5 bacteria per cubic centimeter; 80 mm diameter plate
Excerpt: A filter paper disk, or other object, impregnated with a particular antimicrobial agent is applied to an agar medium that is inoculated with the test organism. Where the anti-microbial agent diffuses through the medium, and as long as the concentration of the antimicrobial agent is above the MIC, none of the susceptible organism will grow on or around the disk for some distance. This distance is called a zone of inhibition. […] The diameter of the zone of inhibition is inversely proportional to the MIC.
A triclosan coating was applied to a 0.5″ polished 316 stainless steel coupon using the device described in FIGS. 1 and 2 according to the cycle described in FIG. 10. The stainless steel coupon was then incubated at 38° C. for 24 hours on an agar plate containing an initial Staphylococcus aureus inoculum of 10^5 bacteria per cubic centimeter of solution.

S. aureus = settings: measured in a suitable growth medium; Bhargava, H. et al, American Journal of Infection Control, June 1996; cited from earlier work

In the case of `Oc1cc(Cl)ccc1Oc1ccc(Cl)cc1Cl` [triclosan, 2,4,4′-trichloro-2′-hydroxydiphenyl ether], the zone of inhibition (Staphylococcus aureus) is given as “approximately 40 mm” and the “minimum inhibitory concentration (MIC) against S. aureus” value (S. aureus) is given as 0.01 ppm.
